# Measurements from patent publication US10227327B2, “Inhibitors of metallo-beta-lactamase (MBL) comprising a zinc chelating moiety” (Universitetet I Oslo, priority 2013, dated 2019).
# Legend:
# [1] = system: E. coli 50639799 (VIM-1); assay: Microbroth dilution, meropenem MIC with/without compound; assay type: cell-based; conditions: compound at 125 μM; 50639799 E. coli VIM-1
# Experimental: (§1) General Protocol for Microbroth Dilution Method for Evaluating Antibacterial Activity of Compounds or Synergistic Effect of Compound-Antibiotic Combination
# (§2) • Plate bacterial strain(s) on appropriate media: • Gram-negative bacteria with ESBLs or carbapenemases: green agar plates with 100 mg/L ampicillin • Gram-negative bacteria without β-lactamases: green agar plates • Gram-positive bacteria (Staphylococci and Enterococci): blood agar plates • Incubate o.n. at 37° C. Day 2: Prepare the Bacterial Inoculum: • Prepare a 0.5 McFarland suspension of bacteria in 0.85% NaCl. (Should be used within 15 min of preparation). • Dilute the 0.5 McFarland suspension 1:100 into MH broth. Check the inoculum by diluting the prepared bacterial suspension 1:100 (10 μl bacterial suspension+990 μl 0.85% NaCl). Plate 10 μl of the dilution on MH agar plates (×2). Incubate o.n. at 37° C., count the colonies and calculate the final CFU/ml inoculum in the plate by multiplying the average number of colonies with 10000 and divide by 2. The final inoculum should be between 3-7×10^5 CFU/ml. • Add 50 μl of the prepared bacterial suspension to each well in the microtiter plate except negative growth control. Preparation of Compounds/Antibiotics • Calculate the desired concentration-range and volume of the compounds/antibiotics in the assay. […] Dilute the stock solution in MH broth. Make subsequent 2-fold dilutions in MH broth of the desired concentrations if a concentration range is to be tested (remember the extra dilution factor in the assay plate). Always include extra volume for pipetting. Take into consideration stock solutions that are made in buffers that have an effect on bacterial growth (e.g. DMSO). Assay: • Determining the MIC of compounds/antibiotics alone: • Add 25 μl of each concentration of compound/antibiotic to row 2-11 (highest concentration in row 2) • Add 25 μl MH broth to row 2-11 • Add 50 μl MH broth to row 12 (positive control) • Add 100 μl MH broth to row 1 • Add 50 μl bacterial suspension to row 2-12. • Determining the MIC of antibiotics+compounds: • Add 25 μl of each concentration of antibiotic to row 2-11 (highest concentration in row 2) • Add 25 μl of compound to row 2-11 • Add 50 μl MH broth to row 12 (positive control) • Add 100 μl MH broth to row 1 • Add 50 μl bacterial suspension to row 2-12. • Incubate the plate for 20 hrs at 37° C. and determine the MIC in the presence and absence of inhibitor.
# [2] = system: E. coli K71-77 (NDM-1); assay: as above; assay type: cell-based; conditions: compound at 125 μM; K71-77 E. coli NDM-1
# Experimental: as §1, §2
# [3] = system: K. pneumoniae A3-81 (VIM-1); assay: as above; assay type: cell-based; conditions: compound at 125 μM; A3-81 K. pneumoniae VIM-1
# Experimental: as §1, §2
# [4] = system: K. pneumoniae K66-45 (NDM-1); assay: as above; assay type: cell-based; conditions: compound at 125 μM; K66-45 K. pneumoniae NDM-1
# Experimental: as §1, §2
# [5] = system: P. aeruginosa 50692172 (NDM-1); assay: as above; assay type: cell-based; conditions: compound at 125 μM; 50692172 P. aeruginosa NDM-1
# Experimental: as §1, §2
# [6] = system: P. aeruginosa K34-7 (VIM-2); assay: as above; assay type: cell-based; conditions: compound at 125 μM; K34-7 P. aeruginosa VIM-2
# Experimental: as §1, §2
# [7] = target: GIM-1 (Pseudomonas aeruginosa, UniProt Q704V1); assay: IC50 determination against purified MBL, nitrocefin reporter substrate; assay type: biochemical; conditions: purified enzyme 1 nM, nitrocefin 50 μM, 25° C.
# Experimental: (§3) General Protocol for Determination of IC50-Values
# (§4) Buffers: A: 50 mM HEPES pH 7.2, 100 μM ZnCl2
# (§5) • B: 50 mM HEPES pH 7.2, 100 μM ZnCl2 and 400 μg/ml Bovine Serum Albumin (BSA) Equipment: SpectraMax 96 well reader • 96 well plates • Cuvettes • General plastics: dilution tubes, eppendorfs etc. Method: Inhibitors: a. Dissolved in 100% DMSO at a concentration of 10 mM • b. Dissolve the inhibitor in buffer A to a concentration of 25% DMSO. No more than 2.5% DMSO is tolerable in the assay. 100% DMSO (10 mM); […]; […] • c. Make a 2-fold dilution series of the inhibitor. At least 8 dilutions should be made. See example in table 1 Reporter Substrate (Nitrocefin): • a. Dilute a small amount of nitrocefin in 1 ml of DMSO • b. Add 990 μl buffer A+10 μl of nitrocefin to a cuvette. • c. Measure initial OD at absorbance specific for the substrate • d. Add purified enzyme to the cuvette and let the hydrolysis run to completion (the more concentrated the enzyme the faster the hydrolysis will run) • e. Measure the end OD • f. Calculate the concentration of substrate: [(End OD−Initial OD)×dilution factor]/Δε (Δε Nitrocefin=17400) • g. Dilute nitrocefin to 100 μM in buffer A Enzyme: Dilute purified enzyme in buffer B to a concentration of 10 nM. Assay: a. Set the settings and temperature on the Spectramax/software: • I. Kinetics • II. λ: 482 • III. Time: 20 min • IV. Interval: 2-5 sec. • V. Mix before 1st read: 5 sec. • VI. Temp: 25° C. • b. Add 30 μl buffer A, 10 μl purified enzyme (final concn. 1 nM), and 10 μl inhibitor to assay wells (duplicates for each inhibitor concentration). Also include a negative control. Wells with no added inhibitor, just 40 μl buffer A. See illustration in table 1. • c. Incubate the plate in the reader for 5 min. • d. Add 50 μl nitrocefin (final concn. 50 μM) to assay wells. This should be done quickly—preferably with an electronic multi-channel pipette. • e. Start the readings immediately. Determine: the initial velocity (V0) for each inhibitor concentration and calculate IC50.
# [8] = target: NDM-1 (Klebsiella pneumoniae, UniProt C7C422); assay: as above; assay type: biochemical; conditions: purified enzyme 1 nM, nitrocefin 50 μM, 25° C.
# Experimental: as §3, §4, §5
# [9] = target: VIM-2 (Escherichia coli, UniProt Q5U7L7); assay: as above; assay type: biochemical; conditions: purified enzyme 1 nM, nitrocefin 50 μM, 25° C.
# Experimental: as §3, §4, §5
# [10] = target: VIM-2 in E. coli SNO3 containing pET26b-blaVIM-2 (Escherichia coli, UniProt Q5U7L7); assay: MBL inhibition in whole E. coli cells expressing MBL (nitrocefin hydrolysis); assay type: cell-based; conditions: whole cell, test substance 250 μM
# [11] = target: GIM-1 in E. coli SNO3 containing pET26b-blaGIM-1 (Pseudomonas aeruginosa, UniProt Q704V1); assay: as above; assay type: cell-based; conditions: whole cell, test substance 250 μM
# [12] = system: E. coli 50739467 (MBL negative); assay: Microbroth dilution, meropenem MIC with/without compound; assay type: cell-based; conditions: compound at 125 μM; 50739467 E. coli MBL negative
# Experimental: as §1, §2
# [13] = system: K. pneumoniae 50732159 (MBL negative); assay: as above; assay type: cell-based; conditions: compound at 125 μM; 50732159 K. pneumoniae MBL negative
# Experimental: as §1, §2
# [14] = system: P. aeruginosa 50808021 (MBL negative); assay: as above; assay type: cell-based; conditions: compound at 125 μM; 50808021 P. aeruginosa MBL negative
# Experimental: as §1, §2
# [15] = system: MBL-producing P. aeruginosa, K. pneumoniae and E. coli; assay: Synergy with meropenem in MBL-producing clinical strains; assay type: cell-based; conditions: compound 125 μM
# Experimental: as §1
# (§6) • Plate bacterial strain(s) on appropriate media: • Gram-negative bacteria with ESBLs or carbapenemases: green agar plates with 100 mg/L ampicillin • Gram-negative bacteria without β-lactamases: green agar plates • Gram-positive bacteria (Staphylococci and Enterococci): blood agar plates • Incubate o.n. at 37° C. Day 2: Prepare the Bacterial Inoculum: • Prepare a 0.5 McFarland suspension of bacteria in 0.85% NaCl. (Should be used within 15 min of preparation). • Dilute the 0.5 McFarland suspension 1:100 into MH broth. Check the inoculum by diluting the prepared bacterial suspension 1:100 (10 μl bacterial suspension+990 μl 0.85% NaCl). Plate 10 μl of the dilution on MH agar plates (×2). Incubate o.n. at 37° C., count the colonies and calculate the final CFU/ml inoculum in the plate by multiplying the average number of colonies with 10000 and divide by 2. The final inoculum should be between 3-7×10^5 CFU/ml. • Add 50 μl of the prepared bacterial suspension to each well in the microtiter plate except negative growth control. Preparation of Compounds/Antibiotics • Calculate the desired concentration-range and volume of the compounds/antibiotics in the assay. […] Dilute the stock solution in MH broth. […]
# [16] = system: MBL-negative clinical strains; assay: Synergy with meropenem in MBL-negative clinical strains; assay type: cell-based
# Experimental: as §1, §6
# Chain of GIM-1 (Q704V1 19-250 limits assumed): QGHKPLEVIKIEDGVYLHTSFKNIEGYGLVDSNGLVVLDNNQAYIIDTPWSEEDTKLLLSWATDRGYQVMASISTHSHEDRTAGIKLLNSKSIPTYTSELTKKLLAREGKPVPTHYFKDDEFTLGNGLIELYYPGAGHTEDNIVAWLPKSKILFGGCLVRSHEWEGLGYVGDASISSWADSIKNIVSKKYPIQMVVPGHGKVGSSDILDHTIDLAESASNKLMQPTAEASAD
# Chain of GIM-1 in E. coli SNO3 containing pET26b-blaGIM-1 (Q704V1 19-250 limits assumed): as above
# Chain of NDM-1 (C7C422 whole entry, looked up, species assumed): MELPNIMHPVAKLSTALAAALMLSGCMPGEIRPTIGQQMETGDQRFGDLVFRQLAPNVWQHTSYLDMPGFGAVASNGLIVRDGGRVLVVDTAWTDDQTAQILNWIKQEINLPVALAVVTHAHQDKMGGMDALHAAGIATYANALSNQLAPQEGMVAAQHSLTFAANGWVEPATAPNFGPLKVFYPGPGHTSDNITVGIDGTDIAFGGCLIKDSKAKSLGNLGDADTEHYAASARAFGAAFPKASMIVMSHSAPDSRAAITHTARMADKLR
Structure (SMILES),Meropenem MIC (mg/L) in presence of compound [1] [mg/L],Meropenem MIC (mg/L) in presence of compound [2] [mg/L],Meropenem MIC (mg/L) in presence of compound [3] [mg/L],Meropenem MIC (mg/L) in presence of compound [4] [mg/L],Meropenem MIC (mg/L) in presence of compound [5] [mg/L],Meropenem MIC (mg/L) in presence of compound [6] [mg/L],IC50 [7] [µM],IC50 [8] [µM],IC50 [9] [µM],inhibition at 250 µM [10] [%],inhibition at 250 µM [11] [%],Meropenem MIC (mg/L) in presence of compound [12] [mg/L],Meropenem MIC (mg/L) in presence of compound [13] [mg/L],Meropenem MIC (mg/L) in presence of compound [14] [mg/L],synergistic activity with meropenem [15],synergistic effect with meropenem [16]
C[C@H](CS)C(=O)N1CCC[C@H]1C(=O)O [Captopril],16,2 to 4,64 to 128,64,32 to 64,32,–,–,–,–,–,–,–,–,–,–
"C[C@@H](N)C(=O)N[C@H](C)C(=O)NCCc1ccc(NC(=O)CN(Cc2ccccn2)Cc2ccccn2)cc1.Cl [Example 24, (R)-1-(((R)-1-((4-(2-(bis(pyridin-2-ylmethyl)amino)acetamido)phenethyl)amino)-1-oxopropan-2-yl)amino)-1-oxopropan-2-aminium chloride]",–,–,–,–,–,–,0.4,0.52,22.8,98.2,69.2,0.5,32,128 to 256,strong synergistic potentiation of meropenem,No synergistic effect
